Results published in US5627156A, “Polypeptide agonists for human interleukin-8” (University of Nebraska Board of Regents, priority 1994, dated 1997).
Where no end group is shown, it is not given here.

Columns and labels:
[1] = tested on: peritoneal cells (PMNs, monocytes/macrophages, lymphocytes); experiment: In vivo chemotactic activity into the peritoneum after ip injection; design: species or system C57BL/6 mice
Method: (§1) A stock solution of 5 mg/ml of Analog 1 was prepared using Dulbecco's phosphate buffered saline D-PBS. The solution was made 5× to compensate for the injection of 0.2 ml ip. The mice were dosed at various times with various doses of analog 1. The ip administration was with a volume of 0.2 ml. In addition, excipient control animals were injected.
(§2) The mice used for the study were C57BL/6 females, which were obtained from Jackson Laboratories. The mice used in these studies were at 8-10 weeks of age and weighed 15-18 g. The mice were housed in conventional cages, fed pelleted food and given water ad libitum.
The mice were sacrificed by ether overdose, the ventral skin reflected and the peritoneum lavaged with three 5 ml lavages of calcium-, magnesium-freeHBSS. At one, two, four, eight and 24 hours, following injection, three to five mice and/or control mice were lavaged and the cells collected in 15 ml tubes. The peritoneal cells were then centrifuged and counted. In addition, a differential was done on the peritoneal cells in a cytospin preparation. For the cytospin, 25 μl of bovine albumin (Sigma Lot #70H0183) was first placed in the bottom of the chamber, and 100 μl of cell suspension (100,000 cells) added. It was spun at 1000 rpm for 5 minutes and then left to dry. Next, they were placed in leukostat fixative solution for 5 seconds followed by 45 seconds in Leukostat solution 1 and 45 seconds in Leukostat solution 2 and finally washed in deionized H2 O for 5 seconds and allowed to dry. The slides were analyzed under microscope for differentials.

[2] = tested on: Polymorphonuclear leukocytes (PMNs); experiment: Neutrophil Ca release by flow cytometry (Fluo-3); type: cell-based, human
Method: Polymorphonuclear leukocytes (≥95% neutrophils, PMNs) were isolated from heparinized (10 U/ml) blood collected from healthy volunteers. Erythrocytes were removed by 6% dextran sedimentation for 30 minutes at room temperature, and then the supernatant was subjected to Ficoll (Ficoll-Paque, Pharmacia LKB, Uppsala, Sweden) density gradient centrifugation. PMNs were obtained from the pellet. Contaminated erythrocytes were eliminated by one cycle of hypotonic lysis. After an additional washing step the cells were counted and adjusted to a final concentration of 5×10^6 /ml in RPMI 1640 (Gibco, Grand Island, N.Y.). Fluo-3 Loading--The loading procedure with Fluo-3 (Molecular Probes, Eugene, Oreg.) was carried out with PMNs suspended at a density of 5×10^6 /ml in fresh RPMI 1640 containing 2.0 μM Fluo-3 AM (prediluted in dimethyl sulfoxide; Sigma Chemicals) in polypropylene tubes (Falcon 2063, Becton Dickinson). […]
Measurement of [Ca^2+ ] in Flow Cytometry--Before addition of the stimuli the fluorescence channel of the FAGScan Plus (Becton Dickinson) was adjusted to find the basal fluorescence level of loaded but unstimulated PMNs. The samples were excited by an argon laser at 488 nm and emission was measured at 525 nm (green fluorescence, channel FL1). […] The fluorescence of Fluo-3-loadedcells was measured in arbitrary fluorescence units of mean channel fluorescence (channel FL1). […]

[3] = tested on: peripheral blood cells (PMNs, monocytes, lymphocytes); experiment: In vivo peripheral blood (PBL) cellularity after ip injection; design: species or system C57BL/6 mice; conditions: single ip injection
Method: as §1, §2
At various times following injection of Analog 1 the mice were bled from retinal orbital plexus with 40 μl removed into heparanized capillary tubes and the blood analyzed using a Serona Baker 9000 Blood analyzer. In addition, blood films were made and differentials undertaken on at least 200 cells/sample.

[4] = Biological activity of the analog compared to analog 1 (test not specified); conditions: C-terminally truncated, residues 4 to 17
Method: The biological activity of an analog of the invention is determined by comparing the analog with naturally occurring IL-8.

[5] = tested on: receptor sites on neutrophils; conditions: cited from earlier work

ELRCQCIKTYSKPFHPK (cysteine pairing not given here) [Analog 1, structural mimic of IL-8 from amino acid residues 4 to 20]
kinetics of the in vivo chemotactic response in the peritoneum ([1]; ip injection of 10 μg, FIG. 7): greatest increase observed was in the number of macrophages and PMNs | primary cell type elicited in the peritoneum ([1]; ip injection, FIG. 3): PMNs | increase in PMN into the peritoneum ([1]; ip injection, FIG. 4): four-fold | increase in monocyte/macrophages into the peritoneum ([1]; ip injection, FIG. 4): two-fold | dose of optimal activity on peritoneal cellularity ([1]; single ip injection, 0.1-500 μg/animal, FIG. 1): 10 μg/animal | neutrophil Ca concentration ([2]; FIG. 10A and B, concentration not given): induced a change in neutrophil Ca concentrations | PBL cellularity ([3]; FIG. 2): significant increase | frequency of PMNs in the peripheral blood ([3]; FIG. 5): increase | absolute number of PMNs and monocytes in the peripheral blood ([3]; FIG. 6): significant increase

Glu-Leu-Arp-Cys-Gln-Cys-Ile-Lys-Thr-Tyr-Ser-Lys-Pro-Phe (ELRCQCIKTYSKPF) [Analog 2, structural mimic of human IL-8 from amino acid residues 4 to 17]
activity compared to analog 1 [4]: slight loss of activity

Interleukin 8 [IL-8]
Kd [5]: 0.2 nM | neutrophil Ca concentration ([2]; 77 amino acid IL-8 at 10^-6 M, FIG. 8B): the majority of neutrophils showed an increase in calcium concentration
